The conditions of series [1]: 25 mg/ml oxybutynin reservoir, 20 μm polybutadiene film, cited from earlier work.
The nature of series [2]: clinical. To be noted: system worn for 24 hours. It is filed as in vivo, human. How it is done: Therapeutic blood levels from about 0.5 ng/ml to about 3.0 ng/ml can be obtained from administration rates in the range of 0.08 mg/hr to 0.5 mg/hr. […] Therapeutic blood levels can be achieved within approximately 1-5 hours, and peak blood concentrations are achieved at about 3 hours when the system is worn for 24 hours. […] The system application is easily adapted for shorter or longer duration treatments, but generally 24 hours is the nominal duration for treatment.

A short description of series [3]: clinical. To be noted: human, in vivo, topical or ocular; for concentration at 24 h: after 24 hours; for concentration at 12 h: after 12 hours. The method, then: (§1) Addition time was approximately 45 minutes.
No in-line adhesive was present. […] There was a 3M acrylate in-line adhesive present.
The in vivo plasma levels of oxybutynin were measured for two body sites. A 10 cm^2 device was worn on the penis for 101/2 hours and two 10 cm^2 devices were worn on the inner thigh for 24 hours. A control sample was drawn before applying the systems.
The other subject achieved a plasma level of 0.7 ng/mL after 12 hours, and the plasma level was 0.8 ng/mL after 24 hours.

Series [4] is classed as in vivo, human. How it is done:
as §1

Where [5] appears, read: plasma oxybutynin concentration, two 10 cm^2 systems on inner thigh.
Where [6] appears, read: plasma oxybutynin level, additional subject (the other), two 10 cm^2 systems on inner thigh.

Where two headings read alike, the source gives them in different places.

In the case of `CCN(CC)CC#CCOC(=O)C(O)(c1ccccc1)C1CCCCC1` (stereo not shown) [oxybutynin, 4-diethylamino-2-butynylphenylcyclohexylglycolate], the “in vitro release rate” value in series [1] (49 cm^2 area) was ~10 μg/cm^2 /hr. For the same molecule, the “in vitro release over 24 hours” value in series [1] (over 24 hours through a 49 cm^2 area) is listed as “approximately 12 mg”. Further, in series [2] (human, in vivo, topical or ocular, read-out: time of peak blood concentrations), the Tmax is ~3 h. The “time to achieve therapeutic blood levels” value in series [2] is 1 to 5 h. This molecule also showed a concentration at 9 h in series [3] (plasma oxybutynin concentration, additional subject (one), two 10 cm^2 systems on inner thigh, after 9 hours) of 2 ng/mL. The concentration at 24 h is 1.7 ng/mL in series [3] (plasma oxybutynin concentration, additional subject (one), two 10 cm^2 systems on inner thigh); 1.1 ng/mL in series [3] (setting [5]); 0.8 ng/mL in series [3] (setting [6]). Besides, the concentration at 12 h is 0.9 ng/mL in series [3] (setting [5]) and 0.7 ng/mL in series [3] (setting [6]). The molecule also returned a concentration at 4 h in series [3] (plasma oxybutynin level, 10 cm^2 device on the penis, within 4 hours) of 2 ng/mL. The “Measured Drug Loss” value in series [4] (subject 1, inner thigh) is given as 5.8 mg/20 cm^2 /day; in series [4] (subject 2, inner thigh) it was 8.6 mg/20 cm^2 /day; in series [4] (subject 3, chest), 6.7 mg/20 cm^2 /day; in series [4] (subject 4, abdomen), 7.2 mg/20 cm^2 /day; in series [4] (subject 5, penis), 19.2 mg/20 cm^2 /day.

The record behind these values is patent publication US5411740A (ALZA Corporation, priority 1994, dated 1995).
